This passage reports Kd results from ChEMBL document CHEMBL3853328, “A molecular dynamics simulation investigation of the relative stability of the cyclic peptide octreotide and its deprotonated and its (CF3)-Trp substituted analogs in different solvents” (Bioorg Med Chem, 2016).

The target of this test is Somatostatin receptor type 2 (Homo sapiens, UniProt P30874). The test is described as follows: Binding affinity to human SST2 receptor.

Each structure is given as a SMILES string.

Sequence of Somatostatin receptor type 2 (P30874 whole entry): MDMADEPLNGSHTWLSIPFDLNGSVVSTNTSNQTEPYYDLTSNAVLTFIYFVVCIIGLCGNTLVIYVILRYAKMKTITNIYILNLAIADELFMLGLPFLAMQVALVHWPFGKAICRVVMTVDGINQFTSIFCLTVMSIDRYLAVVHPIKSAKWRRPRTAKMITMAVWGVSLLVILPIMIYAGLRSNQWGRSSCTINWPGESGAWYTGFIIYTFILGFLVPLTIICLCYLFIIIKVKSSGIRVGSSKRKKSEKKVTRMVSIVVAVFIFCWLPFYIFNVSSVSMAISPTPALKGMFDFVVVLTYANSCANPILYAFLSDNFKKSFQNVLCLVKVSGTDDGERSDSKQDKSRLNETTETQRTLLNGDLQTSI

What is called Kd is the concentration at which binding is half-saturated. `C[C@@H](O)[C@H](CO)NC(=O)[C@@H]1CSSC[C@H](NC(=O)[C@H](N)Cc2ccccc2)C(=O)N[C@@H](Cc2ccccc2)C(=O)N[C@H](Cc2c(C(F)(F)F)[nH]c3ccccc23)C(=O)N[C@@H](CCCCN)C(=O)N[C@@H]([C@@H](C)O)C(=O)N1` yielded a Kd of 15.5 nM. That is a double-digit nanomolar value.
